Assays:
pRb in HCC70 cells = assay: Inhibition of pRb in breast cancer cell line HCC70; type: cell-based; conditions: Homo sapiens, 16 hours
T47D cells = assay: T47D continuous dosing, apoptosis by Annexin V/PI flow cytometry; type: cell-based, human; conditions: after 8 days of continuous dosing
Experimental: T47D cells were seeded in six-well plates (50 000 cells/well) in 2 ml of cell medium (10% hiFBS [Fisher] and 1% Pen/Strep [Invitrogen]). […] Non-treated cells (0.04% DMSO) and staurosporine 1 μM were used as controls for minimum and maximum inhibition controls respectively. […] Cells were then detached using trypsin and transferred to the deep well plate and spun at 1 300 rpm for 5 min. Cell pellet was washed using PBS1X and plated for apoptosis measurement (Annexin V/PI), using the procedure described above (mature neutrophils). All cells were gated on FSC/SSC to exclude debris and doublets.

CDK4/CyclinD1 = CDK4/CyclinD1 (Homo sapiens, UniProt P11802); conditions: cell-free assay, KiATP
Sequence of CDK4/CyclinD1 (P11802 whole entry): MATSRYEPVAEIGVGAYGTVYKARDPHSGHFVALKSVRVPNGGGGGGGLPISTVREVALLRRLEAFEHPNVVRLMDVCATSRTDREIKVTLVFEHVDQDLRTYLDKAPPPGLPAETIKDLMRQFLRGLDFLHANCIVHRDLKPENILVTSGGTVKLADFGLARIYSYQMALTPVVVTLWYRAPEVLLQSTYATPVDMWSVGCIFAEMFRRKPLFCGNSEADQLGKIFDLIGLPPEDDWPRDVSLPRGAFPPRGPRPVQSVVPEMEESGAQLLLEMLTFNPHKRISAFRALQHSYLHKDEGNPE
Sequence of CDK4/CyclinD1 (P24385 whole entry partner): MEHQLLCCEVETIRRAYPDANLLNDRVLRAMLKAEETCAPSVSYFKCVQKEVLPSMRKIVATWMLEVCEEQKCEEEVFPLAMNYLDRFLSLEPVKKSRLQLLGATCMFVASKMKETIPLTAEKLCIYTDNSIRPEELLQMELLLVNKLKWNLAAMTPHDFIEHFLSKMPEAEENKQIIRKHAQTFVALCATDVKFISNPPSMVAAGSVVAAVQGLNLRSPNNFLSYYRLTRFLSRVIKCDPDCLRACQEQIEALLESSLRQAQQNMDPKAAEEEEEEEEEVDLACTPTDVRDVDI
Experimental: Compounds were mixed with substrate mix (C-terminal retinoblastoma fragment [CTRF] peptide and ATP/33-P ATP) at a final concentration range of 2 μM–0.1 nM. The mix was incubated for 90 min at RT and the reaction was then stopped by adding 80 μl of 10% ortho-Phosphoric acid. The mix was next transferred to Multiscreen filter plates (Millipore) to retain phosphorylated peptide. The plates were read in a Microbeta Trilux instrument. Reaction mix with excess of EDTA was used as assay “bottom signal”; complete reaction mix without the inhibitor/compound was used as assay “top signal”.
For IC50 determination, results were fitted to a four-parameter dose-response curve using the following equation:
For the ATP saturation studies Ki and K’i parameters were estimated using the formula:
V=Vmax[S]/[Km(1+[I]/Ki)+[S](1+[I]/Ki')]

[1] = test system: Rb1-deficient breast cancer cell lines; assay: Breast cancer cell panel proliferation (nuclei count); type: cell-based, human; conditions: two doublings
Experimental: A panel of 37 BC cell lines (see Supplementary Table 3 for details) was obtained from the American Type Culture Collection (ATCC, Manassas, Virginia, USA 30-4500 K) or the German Collection of Microorganisms and Cell Cultures GmbH (DSMZ). Cells were cultured according to ATCC or DSMZ recommendations for fewer than ten passages. Cells were seeded in 96 or 384-well plates and incubated overnight prior to treatment.
Cells were plated at 1,000 or 2,000 cells per well in 384-well plates in a total volume of 25 μl of either growth media alone; with 2 μM staurosporine; or with decreasing concentrations of test compounds with a range 20 μM–1 nM. Test compounds were prepared in 100% DMSO using a dilution factor of 1:3 before addition to the cells pre-diluted in growth media. Cells were incubated at 37°C until the untreated cells had doubled twice. Cells were fixed with 70% ethanol, treated with RNAse and nuclei stained with Propidium Iodide (PI). Cell nuclei per well were counted using an ACUMEN EXPLORER™ (STP LABTECH LTD) to determine the number of cells remaining after treatment. […]
were thawed and resuspended in IMDM, 10% hiFBS […]
by curve, slope = steepness of curve at IC50. IC50: 558385), anti-CDK4 antibody (Abcam ab75511) and anti- […]
(ligand binding, enzyme response) by 50%. Fujifilm LAS4000. Actin (Sigma A5441) was used as a %Inh = [(median Max- x/ median Max – median loading control. […]
model were plotted as Geometric means in a waterfall plot using knime workflows. […]
containing 200 μg/ml Ribonuclease A (Sigma R6513).
To monitor senescence, cells […]
treated cells. The same procedure was also followed to instructions. […]
process. was removed. Cell pellet was incubated with Annexin […]
treated controls. […] Cells were analyzed […]
antibodies against CD13-FITC and CD11b-PE. After 10 exclusion and singlets selection). A minimum of 5000 […]
and supernatant was discarded. Cells were resuspended in (Alive). AnnexinV+/PI– (Early apoptosis), Annexin+/PI+ buffer for acquisition in flow cytometer. […]
cytometer (488-nm laser and 585/40nm filter). […] Finally, cells were washed and analyzed

[2] = test system: pRb (Ser780) in MDA-MB-453 cells; assay: pRb (Ser780) washout experiment in MDA-MB-453; type: cell-based; conditions: Homo sapiens
Experimental: (§1) using the flow cytometer (gated on single and alive RNase A (Sigma R6513) and Propidium Iodide (PI) cells subpopulations). The mean fluorescence intensity, (Thermo Fisher P3566) dilution in PBS was added for 1 h or median of fluorescence (MFI), was calculated, and at RT. Fluorescence plates were scanned with ACUMEN compared for individual well and condition. EXPLORER™ monitoring Alexa Fluor 488 and PI signals Cell cycle was analyzed using a Ki67/PI protocol. using 488nm wavelength. […]
Next, cells were washed, Raw data were analyzed with FlowJo 10.6 software. and the cell pellet was incubated with PI/RNase A Graph Pad v8.4.3 software was used for data analysis (Immunostep, PI/RNASE) for 15 min at RT in the dark. and representation of final readouts. JMP (Statistical Cells were analyzed using the flow cytometer (gated for Discovery from SAS) was used for the statistical treatment debris exclusion and single cells). A minimum of 5 000 (ANOVA, pair-wise analysis) of the data. […]
All data were analyzed using FlowJo 10.6 and Graph Pad […]
(§2) pRb Ser780 – high content imaging cell-based was incubated with an antibody against Annexin V. After assay [previously described in Torres-Guzmán et al. 10 minutes of incubation in dark, cells were washed twice (2017)] using Annexin buffer V. Finally, cells were analyzed using MDA-MB-453 (CDK4-dependent) and NCI-H1568 the flow cytometer where PI (1:100) was automatically (CDK6-dependent) cells were seeded at a density of 5 000 added. The percentage of cells at the different phases of and 3 000 cells per well, respectively, in 96-well plates. apoptosis was represented (PI–/Annexin V- for Alive cells, Between 14–24 h after seeding, cells were treated with PI–/Annexin V+ for Early apoptotic cells, PI+/Annexin […]
(§3) V+ for Late apoptotic cells and PI+/Annexin V– for Dead
(§4) Compounds were provided as 10mM stock in 100% cells).
(§5) DMSO and were further diluted to achieve the desired Senescence final concentration (DMSO 0.2%). For fluorescent detection of β-galactosidase, cells After treatment with compounds, the cells were washed with PBS 1X and fixed using 2% PFA incubated at 37°C and 5% CO2 for 4h before being (Acros organics, 119690010) for 10 minutes. Then, cells washed once with PBS and adding 100 μl of fresh media. were washed using PBS+1%BSA and incubated with the […]

pRb in BT474 cells = assay: Inhibition of pRb in breast cancer cell line BT474; type: cell-based; conditions: Homo sapiens, BT-474; 16 hours
pRb in MDA-MB-361 cells = assay: Inhibition of pRb in breast cancer cell line MDA-MB-361; type: cell-based; conditions: Homo sapiens, 16 hours
pRb in MDA-MB-231 cells = assay: Inhibition of pRb in breast cancer cell line MDA-MB-231; type: cell-based; conditions: Homo sapiens, 16 hours
pRb in MDA-MB-134 cells = assay: Inhibition of pRb in breast cancer cell line MDA-MB-134; type: cell-based; conditions: Homo sapiens; 16 hours
pRb in MCF-7 cells = assay: Inhibition of pRb in breast cancer cell line MCF-7; type: cell-based; conditions: Homo sapiens, MCF7; 16 hours
[3] = test system: pRb in MDA-MB-175 VII cells; assay: Inhibition of pRb in breast cancer cell line MDA-MB-175 VII; type: cell-based; conditions: Homo sapiens, 16 hours
pRb in EFM-19 cells = assay: Inhibition of pRb in breast cancer cell line EFM-19; type: cell-based; conditions: Homo sapiens, 16 hours
[4] = test system: pRb (Ser780) in MDA-MB-453 cells; assay: pRb (Ser780) high content imaging cellular assay, CDK4-dependent MDA-MB-453; type: cell-based; conditions: Homo sapiens, CDK4-dependent cell line, n = 4, read-out: pRb (Ser780) Cellular assays IC50 MDA-MB-453
Experimental: (§6) Intracellular phosphorylation of Rb in its residue 780 (Ser780) was measured using fluorescently labeled phospho-specific antibodies and high content imaging. […]
as §1, with “The” for “using the flow cytometer (gated on single and alive RNase A (Sigma R6513) and Propidium Iodide (PI) cells subpopulations). The”
(§7) (Immunostep, PI/RNASE) for 15 min at RT in the dark. and representation of final readouts. JMP (Statistical […]
as §2, §3, §4, §5

[5] = test system: pRb (Ser780) in NCI-H1568 cells; assay: pRb (Ser780) high content imaging cellular assay, CDK6-dependent NCI-H1568; type: cell-based; conditions: Homo sapiens, CDK6-dependent cell line, n = 4, read-out: pRb (Ser780) Cellular assays IC50 NCI-H1568
Experimental: as §6, §1, §7, §2, §3, §4, §5

[6] = Viability of isolated mature neutrophils from human whole blood (Annexin V/PI); type: cell-based
Experimental: Human whole blood was obtained from six healthy donors who previously provided written informed consent. Mature neutrophils were isolated from human whole blood, using a negative-selection technique (MACSxpress isolation kit, Miltenyi 130-104-434). CD16 cell surface expression (Miltenyi, 130-113-396) was used as quality control; only samples with yield > 95% passed QC. CD34+ human bone marrow primary progenitor cells were obtained from Tebu bio (BM34C-4).
Mature neutrophils were plated in a 96-well plate (60K cells per well) in 100 μl RPMI 1640 (Invitrogen), 10% hiFBS (Fisher) and 1% Pen/Strep (Invitrogen).
Neutrophils were plated in a 96-well plate (60K cells/well) in the above-mentioned cell medium. A 10 mM stock of each CDK4 & 6i was used to make ten-point 1:3 serial dilutions in 100% DMSO; multiple dilution steps were used to reach the concentration in the assay: 10 μM, 0.1% DMSO. Non-treated cells (0.1% DMSO) and roscovitine (20 μM) were used as controls. Neutrophils were incubated for 6 h. Following treatment, cells were washed with FACS flow (BD, 342 003), and supernatant was removed. The cell pellet was stained with Annexin V-FITC antibody for 10 min in the dark. Cells were washed with Annexin buffer, centrifuged at 300 G for 5 min, supernatant was discarded, and cell pellet was resuspended in 100 μl of Annexin buffer and analyzed by flow cytometry. PI 1:200 was added automatically by the cytometer. All incubations occurred at 37°C, 5% CO2.
The percentage of alive, early apoptosis, late apoptosis, and dead cells was monitored using the Annexin V/PI assay. Cells were incubated with an anti-human Annexin V-FITC antibody, binding specifically to phosphotidylserine (PS), for 10 min in the dark. PS redistributes to the outer part of the cell membrane in an early stage of apoptosis; in late apoptotic cells, as the cell membrane loses its integrity, both PS and PI can be detected. […]

[7] = read-out: relative IC50 for pRb (Ser780) reduction, 12 h after compound removal, MDA-MB-453, 4 h treatment then 12 h washout
[8] = MDA-MB-453, 4 h treatment, before compound removal, read-out: relative IC50 for pRb (Ser780) reduction, treatment phase

| specificity for CDK4/Cyclin D1 over CDK6/Cyclin D3 complexes (CDK4/CyclinD1) | IC50 [2, 7] | IC50 [2, 8] | IC50 (pRb in BT474 cells) | IC50 (pRb in MDA-MB-361 cells) | IC50 (pRb in MDA-MB-231 cells) | IC50 (pRb in MDA-MB-134 cells) | IC50 (pRb in MCF-7 cells) | IC50 [3] | IC50 (pRb in EFM-19 cells) | IC50 [4] | IC50 [5] | Structure (SMILES) | IC50 (pRb in HCC70 cells) | percentage in total apoptotic and dead cells (T47D cells; 50 nM) | percentage in total apoptotic and dead cells (T47D cells; 100 nM) | activity in Rb1-deficient cell lines (proliferation) [1] | viability at 6 h [6] |
| --- | --- | --- | --- | --- | --- | --- | --- | --- | --- | --- | --- | --- | --- | --- | --- | --- | --- |
| approximately 14 fold | < 100 nM | 6.4 nM | 4.58 ± 2.9 nM | 8.24 ± 1.6 nM | 17.1 ± 4.2 nM | 8.5 ± 0.9 nM | 19.4 ± 7.4 nM | 17.8 ± 2.8 nM | 4.4 ± 1.2 nM | 7.4 nM | 94 nM | CCN1CCN(Cc2ccc(Nc3ncc(F)c(-c4cc(F)c5nc(C)n(C(C)C)c5c4)n3)nc2)CC1 [Abemaciclib, abemaciclib] | > 6000 nM | 28.1% | 40.7% | inactive | 82.5% |
| – | 447 nM | 14.1 nM | 11.5 ± 5.5 nM | 14.6 ± 2.1 nM | 16.1 ± 7.6 nM | 20.5 ± 8.2 nM | 25.6 ± 14 nM | 18.9 ± 4.7 nM | 11 ± 0.6 nM | 23 nM | 63 nM | CC(=O)c1c(C)c2cnc(Nc3ccc(N4CCNCC4)cn3)nc2n(C2CCCC2)c1=O [Palbociclib, palbociclib] | > 6000 nM | 13.2% | 18.7% | inactive | 82.9% |
| – | – | – | 34 ± 26.7 nM | 54.2 ± 13.8 nM | 71.5 ± 26.5 nM | 60 ± 19.7 nM | 116 ± 78.5 nM | 115 ± 80.9 nM | 31 ± 3.6 nM | 53 nM | 554 nM | CN(C)C(=O)c1cc2cnc(Nc3ccc(N4CCNCC4)cn3)nc2n1C1CCCC1 [Ribociclib, ribociclib] | > 6000 nM | – | – | inactive | 81.4% |

From publication PMC9255995 (Oncotarget, 2022)
